# Key:
# Conditions in all cases: 72 h
# Calu-3 [1] = test: drug sensitivity score (DSS) for viability; higher = more toxic; extreme values may be limits of the assay
# Vero E6 [2] = test: as above
# HepG2 [3] = test: as above
# Caco-2 [4] = test: as above
# Calu-3 [5] = test: relative viability EC50 (midpoint between 100% and the lowest measured viability); higher = less toxic
# Vero E6 [6] = test: as above
# HepG2 [7] = test: as above
# Calu-3 [8] = test: cell viability relative to DMSO; higher = less toxic
# Vero E6 [9] = test: as above
# HepG2 [10] = test: as above
# Caco-2 [11] = test: as above
# U2OS [12] = test: drug sensitivity score (DSS) for viability; higher = more toxic; extreme values may be limits of the assay
# U2OS [13] = test: relative viability EC50 (midpoint between 100% and the lowest measured viability); higher = less toxic
# U2OS [14] = test: cell viability relative to DMSO; higher = less toxic
# Caco-2 [15] = test: relative viability EC50 (midpoint between 100% and the lowest measured viability); higher = less toxic
SMILES,drug sensitivity score (Calu-3 [1]),drug sensitivity score (Vero E6 [2]),drug sensitivity score (HepG2 [3]),drug sensitivity score (Caco-2 [4]),relative viability EC50 (Calu-3 [5]) [µM],relative viability EC50 (Vero E6 [6]) [µM],relative viability EC50 (HepG2 [7]) [µM],cell viability (Calu-3 [8]; 1 nM) [%],cell viability (Calu-3 [8]; 10 nM) [%],cell viability (Calu-3 [8]; 100 nM) [%],cell viability (Calu-3 [8]; 1000 nM) [%],cell viability (Calu-3 [8]; 10000 nM) [%],cell viability (Vero E6 [9]; 1 nM) [%],cell viability (Vero E6 [9]; 10 nM) [%],cell viability (Vero E6 [9]; 100 nM) [%],cell viability (Vero E6 [9]; 1000 nM) [%],cell viability (Vero E6 [9]; 10000 nM) [%],cell viability (HepG2 [10]; 1 nM) [%],cell viability (HepG2 [10]; 10 nM) [%],cell viability (HepG2 [10]; 100 nM) [%],cell viability (HepG2 [10]; 1000 nM) [%],cell viability (HepG2 [10]; 10000 nM) [%],cell viability (Caco-2 [11]; 1 nM) [%],cell viability (Caco-2 [11]; 10 nM) [%],cell viability (Caco-2 [11]; 100 nM) [%],cell viability (Caco-2 [11]; 1000 nM) [%],cell viability (Caco-2 [11]; 10000 nM) [%],drug sensitivity score (U2OS [12]),relative viability EC50 (U2OS [13]) [µM],cell viability (U2OS [14]; 1 nM) [%],cell viability (U2OS [14]; 10 nM) [%],cell viability (U2OS [14]; 100 nM) [%],cell viability (U2OS [14]; 1000 nM) [%],cell viability (U2OS [14]; 10000 nM) [%],relative viability EC50 (Caco-2 [15]) [µM]
CN(c1ncccc1CNc1nc(Nc2ccc3c(c2)CC(=O)N3)ncc1C(F)(F)F)S(C)(=O)=O,2.8,5.1,9,3.9,3.74,1.64,1.46,108,104,100,108,39.5,98.5,101,87.8,83.9,41.5,108,113,108,74.1,7.9,105,111,107,91.5,53.1,,,,,,,,
Cc1c[nH]c(=O)n(CCCN2CCN(c3ccccc3OCC(F)(F)F)CC2)c1=O,0.3,0,0,,> 10,> 10,> 10,90.5,99,99.1,96.6,87.4,102,96.2,99.2,98.7,105,98.7,96.2,95.9,98.2,103,,,,,,0,> 10,101,102,100,101,102,
O=C(NCCCCCCNC(=O)ON=C1CCCCC1)ON=C1CCCCC1,0,0,0,0,> 10,> 10,> 10,98.4,95.9,108,98.8,99.6,98.8,103,99.5,100,105,99.2,104,100,94.6,93.9,105,98.1,98.3,103,102,,,,,,,,> 10
O=S1(=O)N[C@H]2CCCN2c2ccccc21,0,0,0.1,0,> 10,> 10,> 10,93.3,106,108,104,101,101,100,98,89.5,96.7,96.8,99.3,89.7,104,86.7,100,96.7,88.4,104,113,,,,,,,,> 10
O=c1[nH]c(CCl)nc2sc3c(c12)CCCC3,0,0,0.2,1.4,> 10,> 10,> 10,116,98.1,97.9,92,109,99.4,101,95.8,96.4,92.9,92.7,94.5,96.2,107,81.8,96.8,99.1,98.3,98.8,71,0.5,> 10,103,94.5,98.8,100,80.6,
CC1(C)CCC(C)(C)c2cc(C(=O)Nc3ccc(C(=O)O)cc3)ccc21 [AM-580],7.7,0,0,0,,> 10,> 10,89.5,83.4,71.6,77.3,81.6,103,106,102,101,96.5,92.6,101,101,102,97.3,95.5,99.1,98.1,95.6,93.9,0,> 10,100,96.7,95.6,90.5,95.6,> 10
CC(C)[C@@H](CS(=O)(=O)C(C)C)N1C(=O)[C@@](C)(CC(=O)O)C[C@H](c2cccc(Cl)c2)[C@H]1c1ccc(Cl)cc1 [AMG-232],0,8.1,14,0.7,> 10,0.568,0.266,99.9,92.4,93.1,96.7,93.8,96.8,99.1,98.4,58.1,44.6,102,96,85.9,33.5,24.4,99.6,97.7,94.2,91.3,82.9,5.2,,98.5,95.5,97.4,71.2,65.8,> 10
CC[C@H](CC#N)OC(=O)N[C@@H](C)c1cccc(NC(=O)Nc2ccc(-c3cnco3)c(OC)c2)c1 [AVN-944],9.1,8,11.5,9.1,,1.06,0.464,97.6,92.9,88.7,57.3,58.2,97.8,108,103,67.6,30.2,89,106,101,37.6,29,102,94.1,93.6,54.8,48,10.7,0.707,105,101,102,45.2,22.2,0.319
O=C(O)CCCCC(CCSCc1ccccc1)SCc1ccccc1 (centres undefined) [CPI-613],0,0,0,,> 10,> 10,> 10,103,104,97.6,106,101,98.7,94.8,97.8,95.7,100,97.5,102,97.2,100,104,,,,,,0,> 10,100,96.7,95.5,96.4,112,
CCC[C@@H](NC(=O)N1C(=O)C(CC)(CC)[C@@H]1Oc1ccc(C(=O)N2CCN(C)CC2)cc1)c1ccc2c(c1)OCO2 [DMP-777],0,0,0,1.4,> 10,> 10,> 10,105,110,105,95.4,94.1,94.8,95.5,93.4,93.7,96.8,95.3,97.1,102,90.8,93,103,95,99.6,105,63.3,0.1,> 10,93.7,103,98.5,96.7,88,
CC1(C)CCC(C)(C)c2cc(C#Cc3ccc(C(=O)O)cc3)ccc21 [EC-23],5.2,0,0,1.7,,> 10,> 10,106,88.7,83.9,63.9,85.7,102,99.6,100,97.4,94.2,96.5,108,104,108,106,104,105,89.1,88.8,80.6,0,> 10,105,100,98.4,95.7,97.4,> 10
CN(Cc1ccccc1)C(=O)[C@H](Cc1ccc2ccccc2c1)NC(=O)[C@@H]1C[C@@H](O)CN1C(=O)c1cn(C)c2ccccc12 [FK-888],0.6,0,1.1,2.2,> 10,> 10,> 10,99.3,94,90.6,90.5,86.7,105,103,101,95.2,99,106,111,106,93,82.3,99.7,105,99.2,94.7,69.3,0,> 10,103,98.7,98.5,103,87.2,
CCOc1cc2ncc(C#N)c(Nc3ccc(OCc4cccc(F)c4)c(Cl)c3)c2cc1NC(=O)/C=C/CN(C)C [HKI-357],10.7,9.8,7,8.6,0.373,1.37,2.41,101,81,51.5,94.1,32.9,99.7,106,92.6,65.3,0.2,97,93.6,102,90.9,0.3,94.4,95.3,88.1,77.9,6,,,,,,,,1.63
COC[C@@H](NC(C)=O)C(=O)NCc1ccccc1 [Lacosamide],0,0,0,0,> 10,> 10,> 10,99.1,99.5,90.6,114,110,98.5,97.4,86,90.6,104,98.3,97.5,98.3,98,96.1,92.8,90.5,81.7,98.8,106,0,> 10,,,,,,> 10
O=C(Nc1nc2ccc(NC(=O)C34CC5CC(CC(C5)C3)C4)cc2s1)c1ccccc1 [NVP-231],3.8,4.4,6.4,5.2,,2.34,1.24,100,96.1,91.8,93.1,50.3,101,96.1,90.3,93.9,38.4,83.9,98.2,91.6,74.1,35.4,95.6,89.2,106,86.3,43.5,4,1.93,100,93.8,99.3,91.9,49.6,1.58

# From the supplement of paper PMC13380429
